“Also recorded” adds a separate entry of the source.
What was measured:
p21 [1] = experiment: Western blot of p21, p27 and Cdk2 in BxPC-3 cells; assay type: cell-based, human
Protocol: (§1) Synchronized cells (2×10^6) from each treatment were solubilized in 200 μl RIPA buffer (1×PBS, 10 μM IGEPAL, 1 mg/ml SDS, 5 mg/ml deoxycholic acid), containing protease and phosphatase inhibitors (2 μg/ml aprotinin, 3 mg/ml phenylmethyl sulfonyl fluoride, 1 mM sodium orthovanidate, 1 μM okadaic acid). Total protein concentrations were measured using the DC protein assay kit (Bio-Rad Laboratories, Hercules, Calif.). Equal amounts of protein (40 μg) were subjected to 10% SDS-PAGE followed by transfer of proteins onto polyvinylidene difluoride (Millipore, Billerica, Mass.) using standard protocols.
The following antibodies were purchased from commercial sources: phospho-Rb (Ser795), phospho-Rb (Ser807/811) (Cell Signaling Technology, Beverly, Mass.); Cdk2, p57 (Santa Cruz Biotechnology, Santa Cruz, Calif.); p21, p27, total Rb (BD PharMingen, San Diego, Calif.); β-actin (Clone AC-15, Sigma-Aldrich).
Membranes were probed with secondary anti-rabbit or anti-mouse horseradish peroxidase-conjugated antibodies (GE Healthcare-Amersham Biosciences, Piscataway, N.J.), and developed using a chemiluminescence Western blotting detection system.
To determine equal loading of total protein samples, blots were re-probed with monoclonal antibody against β-actin at a dilution of 1:2000. If necessary, membranes were processed in stripping buffer (62.5 mM Tris-HCI and 100 mM β-mercaptoethanol/2% SDS, pH 6.7) at 50° C. before being re-probed.
To quantify expression levels or kinase activity, the optical density of each band was determined by densitometry and analyzed by QuickOne (Bio-Rad Laboratories). Each value was normalized to β-actin from the same blot. To report the changes due to OGF treatment, we calculated the fold increase by dividing the normalized value from the OGF treated samples by the normalized value of control samples at each time point; thus, increases due to OGF have values greater than one, and decreases due to OGF have values less than one. For all Western blot analyses, 3 or more independent experiments were performed.
The p21-targeted siRNAs were obtained from Santa Cruz Biotechnology, and negative control siRNAs were purchased from Ambion (Ambion, Inc., Austin, Tex.). For transfection, 2×10^5 cells per well were seeded in 6-well plates containing 1 ml of media without antibiotics. For each well, 1 μl of siRNA stock (20 μM) was mixed with 175 μl of serum-free media. Two μl of Oligofectamine reagent (Invitrogen, Carlsbad, Calif.) was added to prewashed cells in each well, making the final concentration for siRNA approximately 20 nM. Cells were incubated for 4 hours at 37° C. prior to the addition of OGF. Eighteen hours later, 1 ml fresh complete media with or without OGF was added to the cultures; media and OGF were replaced daily. At the indicated time points, cells were collected for growth curves or Western blotting.

p21 [2] = experiment: Western blot of p21 in Capan-2 cells; assay type: cell-based, human; conditions: 3 hours
Protocol: Human pancreatic cancer cell lines BxPC-3, PANC-1, and Capan-2 were obtained from the American Type Culture Collection (Manassas, Va.), and cultured in RPMI, Dulbecco's Modified Medium, or McCoy's 5A medium, respectively. All media were supplemented with 10% fetal bovine serum, 1.2% sodium bicarbonate, and 0.25% antibiotics (5000 units/ml penicillin, 5 μg/ml streptomycin and 10 μg/ml neomycin). OGF was purchased from Sigma-Aldrich (St. Louis, Mo.), dissolved in sterile water, and used at a final concentration of 10^−6 M.
as §1
The p21-targeted siRNAs were obtained from Santa Cruz Biotechnology, and negative control siRNAs were purchased from Ambion (Ambion, Inc., Austin, Tex.). For transfection, 2×10^5 cells per well were seeded in 6-well plates containing 1 ml of media without antibiotics. […]

[Met^5]-enkephalin [OGF]
expression of the cell cycle inhibitor p27 (p21 [1]; OGF treatment): no significant effect | expression of Cdk2 protein (p21 [1]; following OGF exposure): did not change | p21 expression (p21 [1]; synchronized BxPC-3 cells, 9 hours, 10^-6 M OGF, 10^-5 M naloxone): significantly upregulated; also recorded: significantly elevated | p21 expression relative to control cultures (p21 [2]): increased p21 expression
